# According to publication PMC2063322, “Phase I trial and pharmacokinetics of the tubulin inhibitor 1069C85--a synthetic agent binding at the colchicine site designed to overcome multidrug resistance” (British Journal of Cancer, 1997):
# Like-named read-outs stand apart in the source and are kept apart here.
# Legend:
# [1] = tested on: mice; parameters: method as in data on file, Cancer Research Campaign, 1993; details: ref data on file, Cancer Research Campaign, 1993, cited from earlier work
# [2] = Tumour response assessment in phase I patients; format: in vivo, human; details: 39 patients, 2.8-200 mg m-2
# Method: (§1) British Joumal of Cancer (1997) 75(4), 608-613 ? […] A phase I study was performed using a single oral dose every 3 weeks, administered as a suspension reconstituted in 0.1% Tween 80 and 0.9% saline. The starting dose was 2.8 mg m-2, and dose doubling was permitted until the area under curve (AUC) was ?40% of that at the mouse LD10; thereafter, a modified Fibonacci scheme was used. […] Keywords: tubulin; multidrug resistance; neurotoxicity The tubulin-binding agent 1069C85 was developed from a struc- ture activity investigation of tubulin inhibitors binding at the colchicine site on tubulin. […] No studies were performed using human tumour xenografts. […] METHODS Formulation and drug administration A formulation was developed at the Cancer Research Campaign Formulation Unit. The drug was dispensed into vials as a dry powder and reconstituted as a fine suspension by administration of 0.9% saline containing 0.1% Tween 80 (polysorbate) with vigorous mixing. Immediately before oral administration, the drug suspension was mixed with orange juice both to disguise any possible unpleasant taste and to help ensure complete ingestion.
# [3] = Aqueous solubility; format: physicochemical
# [4] = Stability of 1069C85 in orange juice; details: suspension mixed with orange juice
# Method: as §1
# [5] = tested on: human tumour cell lines; details: ref Raynaud et al, 1994; cited from earlier work
# [6] = tested on: rodents; parameters: method as in data on file, Cancer Research Campaign, 1993; details: ref data on file, Cancer Research Campaign, 1993; cited from earlier work
# [7] = tested on: dogs; parameters: method as in Data on file, Glaxo/Wellcome, 1990; details: 20 mg m-2; ref Data on file, Glaxo/Wellcome, 1990; cited from earlier work
# [8] = dog, cited from earlier work
# [9] = parameters: method as in Raynaud et al, 1994; details: mouse, estimated; ref Raynaud et al, 1994; cited from earlier work
# [10] = tested on: mammalian tubulin; parameters: method as in Hodgson et al 1992; Hodgson, 1994; details: at concentrations cytotoxic to P388 cells, ref Hodgson et al 1992, 1994; cited from earlier work
# [11] = tested on: rats; parameters: method as in data on file, Cancer Research Campaign, 1993; details: 14.3 mg m-2 p.o. (one-tenth mouse LD10), daily x 5 for 4 weeks, rat; ref data on file, Cancer Research Campaign, 1993; cited from earlier work
# [12] = Phase I toxicity graded by Common Toxicity Criteria
# Method: as §1
# [13] = cited from earlier work
# [14] = Protein binding in human plasma (Amicon membrane centrifugation); details: 25 C
# Method: as §1
# [15] = tested on: murine tumour cell lines with acquired resistance to natural anti-cancer products; details: acquired resistance to a variety of natural anti-cancer products, ref Hodgson et al, 1992, 1994; cited from earlier work
# [16] = tested on: murine tumours; details: cited from earlier work
# [17] = grade 3 patient, 200 mg m-2 non-micronized
# [18] = grade 4 neurotoxicity patient, 100 mg m-2 micronized
# [19] = patient no. 39, 50 mg m-2 micronized
smiles,measurement,setting,value
COC(=O)Nc1cn2nc(OCc3cc(OC)c(OC)c(OC)c3)ccc2n1 [1069C85],"LD10, single dose intraperitoneally","[1]; mice, i.p.",39.6 mg m-2
same,"LD10, single oral dose","[1]; mice, p.o.",142.2 mg m-2
same,repeat dose that proved to be fatal,"[1]; mouse, i.p., daily x 5 for 4 weeks",above 3.9 mg m-2
same,objective responses,[2],no objective responses
same,aqueous solubility,[3],extremely poor
same,effect of orange juice on the stability,[4],no effect
same,activity in resistant human tumour cell lines,[5],confirmed these findings
same,dose limiting toxicities,[6],myelosuppression and gastrointestinal damage
same,toxicity observed in dogs,[7],fatal toxicity
same,oral bioavailability,"[8]; i.v. formulation dimethyl isosorbide, ref data on file, Glaxo/Wellcome 1990",7%
same,plasma elimination half-life following oral administration,"[8]; p.o., ref Data on file 1990",approximately 16 h
same,Protein binding,[9],85-99%
same,inhibition of tubulin polymerization,[10],potent inhibition
same,animals in which repeat dosing proved fatal,[11],seven out of ten
same,incidence of central neurotoxicity (mainly mild sedation),"[12]; 200 mg m-2, non-micronized",four of five
same,duration of neurotoxic symptoms,[12]; [17],7 days
same,onset of neurotoxic symptoms after dosing,[12]; [17],48 h
same,alopecia grade,[12]; [18],2
same,neutropenia grade,[12]; [18],3
same,onset of neurotoxicity,"[12]; grade 4 patient, 100 mg m-2 micronized",approximately 48 h
same,"severe central neurotoxicity, maximum grade","[12]; micronized formulation, doses of 50-100 mg m-2",≤ 4
same,toxicities observed,"[12]; micronized, 25 or 35.8 mg m-2",No significant toxicities
same,nausea and vomiting grade (only toxicities observed),"[12]; non-micronized, 2.8 to 22.4 mg m-2",1-2
same,antiproliferative toxicities,"[12]; original formulation, 2.8-200 mg m-2",no antiproliferative toxicities
same,day of death attributed to 1069C85,[12]; [19],8 days
same,thrombocytopenia grade,[12]; [19],3
same,vomiting and diarrhoea grade,[12]; [19],2
same,neutropenia grade,"[12]; patient no. 39, 50 mg m-2 micronized, onset day 6",4
same,Cmax at which severe neurotoxicity was not observed,[12]; patients,< 100 ng ml'
same,peak plasma concentration above which CNS neurotoxicity was severe,[12]; patients,above 100 tg 1-'
same,Neurotoxicity (CTC grade),"[12]; single patient (no. 39), 50 mg m-2 micronized, agitation, confusion and visual hallucinations, days 2-6",3
same,Neurotoxicity (CTC grade),"[12]; single patient, 100 mg m-2 micronized, ataxia, confusion, hallucinations, coma, days 2-7",4
same,Neurotoxicity (CTC grade),"[12]; single patient, 100 mg m-2 micronized, vivid dreams, disturbed sleep, days 3-6",1
same,Neurotoxicity (CTC grade),"[12]; single patient, 200 mg m-2 non-micronized, ataxia, confusion, disorientation, days 2-6",3
same,Neurotoxicity (CTC grade),"[12]; single patient, 200 mg m-2 non-micronized, visual disturbance, flashing lights",1
same,increase of bioavailability with micronized drug,"[13]; mice, preclinical, ref F I Raynaud, personal communication",two-threefold
same,oral bioavailability,"[13]; mouse, i.v. vehicle DMSO/saline, ref Raynaud et al, 1994",20%
same,plasma elimination half-life following oral administration,"[13]; mouse, p.o., ref Raynaud et al, 1994",~8 h
same,Protein binding,[14],> 99%
same,activity against resistant murine tumour cell lines,[15],retained activity
same,activity of the 20 mg kg-1 oral dose,"[16]; 20 mg kg-1, oral, mouse",active dose
same,anti-tumour activity in vivo,"[16]; oral route, a variety of murine tumours",confirmed
